Source: ChEMBL document CHEMBL3045079, “Synthesis, antimalarial and antibacterial activities of 3-amino acid- and aryl amine-substituted 2-methyl-3H-quinalzolin-4-ones” (2010)
Activity calls are given as the source filed them. No cut-off for these calls is given here.

Tests used:
Plasmodium yoelii [1] = assay: Antimalarial activity against Plasmodium yoelii N-67 infected Swiss mouse assessed as parasitemia at 200 mg/kg, ip qd administered 4 days measured on day 7 (reference value: 19.5 +/- 0.76 %); assay type: functional; details: route intraperitoneal
Escherichia coli = assay: Antibacterial activity against Escherichia coli at 100 ug after 24 hr by cup-plate method; assay type: functional, organism-based
Plasmodium yoelii [2] = assay: Antimalarial activity against Plasmodium yoelii N-67 infected Swiss mouse assessed as parasitemia at 200 mg/kg, ip qd administered 4 days measured 24 hr post last treatment (reference value: 12.36 +/- 1.14 %); assay type: functional; details: route intraperitoneal
Staphylococcus aureus = assay: Antibacterial activity against Staphylococcus aureus at 100 ug after 24 hr by cup-plate method; assay type: functional, organism-based
Plasmodium yoelii [3] = assay: Antimalarial activity against Plasmodium yoelii N-67 infected Swiss mouse assessed as mean survival time at 200 mg/kg, ip qd administered 4 days measured 24 hr post last treatment (reference value: 8.2 +/- 0.86 days); assay type: functional; details: route intraperitoneal

SMILES	Activity (Plasmodium yoelii [1]) [%]	Activity (Escherichia coli)	Activity (Plasmodium yoelii [2]) [%]	Activity (Staphylococcus aureus)	MST (Plasmodium yoelii [3]) [days]
Cc1nc2ccccc2c(=O)n1CC(=O)O	17.2	inactive	10.5	inactive	6.6
Cc1nc2ccccc2c(=O)n1[C@@H](CS)C(=O)O	25	inactive	11.9	inactive	7.4
Cc1nc2ccccc2c(=O)n1[C@@H](CCCCN)C(=O)O	17.5	inactive	9.78	inactive	6.8
Cc1nc2ccccc2c(=O)n1-c1ccc([N+](=O)[O-])cc1	25.5	inactive	10.43	inactive	7
Cc1nc2ccccc2c(=O)n1[C@@H](CCC(=O)O)C(=O)O	18.45	inactive	9.6	inactive	7.8
Cc1nc2ccccc2c(=O)n1-c1ccc(O)cc1	16.8	inactive	10.52	inactive	6.8
